Assay results published in patent US20080171783A1, “COMPOSITIONS AND METHODS FOR TREATING HYPERPROLIFERATIVE DISEASE” (Migenix Inc., priority 2006, published 2008).

Molecular target: T1, Calf polymerase alpha (Bos taurus, UniProt A0AAA9TD94)
T1 construct: purchased Replizyme Ltd (Heslington, York, UK)
T1 sequence (A0AAA9TD94 1-1441): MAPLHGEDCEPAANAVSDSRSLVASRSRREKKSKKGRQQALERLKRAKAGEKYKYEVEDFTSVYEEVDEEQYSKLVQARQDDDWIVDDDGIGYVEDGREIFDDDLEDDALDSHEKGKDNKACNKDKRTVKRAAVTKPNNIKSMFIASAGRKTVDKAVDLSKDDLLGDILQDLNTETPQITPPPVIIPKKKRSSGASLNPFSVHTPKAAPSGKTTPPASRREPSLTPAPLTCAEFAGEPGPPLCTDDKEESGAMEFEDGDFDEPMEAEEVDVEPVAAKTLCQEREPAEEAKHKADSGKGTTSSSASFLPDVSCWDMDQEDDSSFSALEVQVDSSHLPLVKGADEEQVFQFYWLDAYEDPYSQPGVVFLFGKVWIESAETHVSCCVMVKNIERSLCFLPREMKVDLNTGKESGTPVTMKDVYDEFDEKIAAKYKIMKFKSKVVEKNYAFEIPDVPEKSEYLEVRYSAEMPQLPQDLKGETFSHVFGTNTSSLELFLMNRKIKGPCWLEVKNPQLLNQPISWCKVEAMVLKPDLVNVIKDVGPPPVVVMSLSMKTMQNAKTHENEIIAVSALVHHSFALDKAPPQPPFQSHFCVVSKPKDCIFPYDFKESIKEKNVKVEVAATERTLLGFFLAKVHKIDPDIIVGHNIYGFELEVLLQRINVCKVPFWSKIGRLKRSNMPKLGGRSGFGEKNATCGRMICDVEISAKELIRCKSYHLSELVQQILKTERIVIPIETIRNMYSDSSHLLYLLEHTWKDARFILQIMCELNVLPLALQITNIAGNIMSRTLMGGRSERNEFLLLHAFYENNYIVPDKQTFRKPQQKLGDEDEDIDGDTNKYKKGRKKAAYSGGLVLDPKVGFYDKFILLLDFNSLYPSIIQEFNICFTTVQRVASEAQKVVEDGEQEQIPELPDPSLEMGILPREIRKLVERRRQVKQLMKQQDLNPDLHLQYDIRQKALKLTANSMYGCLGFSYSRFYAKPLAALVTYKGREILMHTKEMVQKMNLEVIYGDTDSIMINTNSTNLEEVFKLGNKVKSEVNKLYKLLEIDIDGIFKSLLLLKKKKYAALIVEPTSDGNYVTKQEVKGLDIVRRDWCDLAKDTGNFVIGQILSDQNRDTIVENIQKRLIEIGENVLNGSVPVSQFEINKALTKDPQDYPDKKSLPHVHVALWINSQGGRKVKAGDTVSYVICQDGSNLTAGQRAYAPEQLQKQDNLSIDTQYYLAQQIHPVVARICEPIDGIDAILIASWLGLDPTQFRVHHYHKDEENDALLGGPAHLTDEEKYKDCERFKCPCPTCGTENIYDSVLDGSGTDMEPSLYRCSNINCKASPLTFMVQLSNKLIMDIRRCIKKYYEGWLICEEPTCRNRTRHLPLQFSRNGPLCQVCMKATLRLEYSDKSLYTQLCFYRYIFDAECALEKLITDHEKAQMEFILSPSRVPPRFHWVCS
Test: Calf polymerase alpha inhibition (Replizyme kit)
Type: biochemical
Conditions: at 10 μM, single point screening
Procedure: Calf polymerase alpha and human polymerase alpha investigations were performed with a kit available from Replizyme Ltd (Heslington, York, UK).

Structure (SMILES) | inhibition at 10 µM | % Inhibition
Cc1ccc(NC(=O)[C@H](CCCCN)NC(=O)OCC2c3ccccc3-c3ccccc32)cc1 [Compound 20, (S)-(5-AMINO-1-P-TOLYLCARBAMOYL-PENTYL)-CARBAMIC ACID 9H-FLUOREN-9-YLMETHYL ESTER] | 18% | 
NCCCC[C@H](NC(=O)OCC1c2ccccc2-c2ccccc21)C(=O)NCc1ccccc1 [Compound 21, (S)-(5-AMINO-1-BENZYLCARBAMOYL-PENTYL)-CARBAMIC ACID 9H-FLUOREN-9-YLMETHYL ESTER] | 12% | 
NCCCC[C@H](NC(=O)OCC1c2ccccc2-c2ccccc21)C(=O)NC1CCCCC1 [Compound 22, (S)-(5-AMINO-1-CYCLOHEXYLCARBAMOYL-PENTYL)-CARBAMIC ACID 9H-FLUOREN-9-YLMETHYL ESTER] | 14% | 
NCCCC[C@H](NC(=O)OCC1c2ccccc2-c2ccccc21)C(=O)N(Cc1ccccc1)C1CCCCC1 [Compound 33, (S)-[5-AMINO-1-(BENZYL-CYCLOHEXYL-CARBAMOYL)-PENTYL]-CARBAMIC ACID 9H-FLUOREN-9-YLMETHYL ESTER] | 95% | 
Cc1ccc(NC(=O)[C@H](CCCCN)NC(=O)Nc2ccc(-c3ccccc3)cc2)cc1 [Compound 40, (S)-6-AMINO-2-(3-BIPHENYL-4-YL-UREIDO)-HEXANOIC ACID P-TOLYLAMIDE] |  | 95%
Cc1ccc(NC(=O)[C@H](CCCCN)NC(=O)C2c3ccccc3-c3ccccc32)cc1 [Compound 52, (S)-9H-FLUORENE-9-CARBOXYLIC ACID (5-AMINO-1-P-TOLYLCARBAMOYL-PENTYL)-AMIDE] |  | 13%
Cc1ccc(NC(=O)[C@H](CCCCN)NC(=O)CC2c3ccccc3-c3ccccc32)cc1 [Compound 53, (S)-6-AMINO-2-(2-9H-FLUOREN-9-YL-ACETYLAMINO)-HEXANOIC ACID P-TOLYLAMIDE] |  | 22%
Cc1ccc(NC(=O)[C@H](CCCCN)NC(=O)Nc2ccc(Cc3ccccc3)cc2)cc1 [Compound 74, (S)-6-AMINO-2-[3-(4-BENZYL-PHENYL)-UREIDO]-HEXANOIC ACID P-TOLYLAMIDE] |  | 92%
Cc1ccc(N(C)C(=O)[C@H](CCCCN)NC(=O)OCC2c3ccccc3-c3ccccc32)cc1 [Compound 92, (S)-[5-AMINO-1-(METHYL-P-TOLYL-CARBAMOYL)-PENTYL]-CARBAMIC ACID 9H-FLUOREN-9-YLMETHYL ESTER] |  | 56.5%
Cc1cc2cc(NC(=O)[C@H](CCCCN)NC(=O)Nc3ccc(-c4ccccc4)cc3)ccc2[nH]1 [Compound 94, (S)-6-AMINO-2-(3-BIPHENYL-4-YL-UREIDO)-HEXANOIC ACID (2-METHYL-1H-INDOL-5-YL)-AMIDE] | 93% | 
Cc1ccc(NC(=O)[C@H](CN)NC(=O)OCC2c3ccccc3-c3ccccc32)cc1 [Compound 103, (S)-(2-AMINO-1-P-TOLYLCARBAMOYL-ETHYL)-CARBAMIC ACID 9H-FLUOREN-9-YLMETHYL ESTER] |  | 72%
Cc1ccc(NC(=O)[C@H](CCN)NC(=O)OCC2c3ccccc3-c3ccccc32)cc1 [Compound 108, (S)-(3-AMINO-1-P-TOLYLCARBAMOYL-PROPYL)-CARBAMIC ACID 9H-FLUOREN-9-YLMETHYL ESTER] |  | 84%
Cc1ccc(NC(=O)[C@H](CCCC[N+](C)(C)C)NC(=O)OCC2c3ccccc3-c3ccccc32)cc1 [Compound 110] |  | 62.5%
Cc1ccc(NC(=O)[C@@H](N)CCCCN)cc1 [Compound 114, (S)-2,6-DIAMINO-HEXANOIC ACID P-TOLYLAMIDE] |  | 17%
NCCCCC[C@H](NC(=O)Nc1ccc(OCc2ccccc2)cc1)C(=O)Nc1ccc(C2CCCCC2)cc1 [Compound 121, (S)-7-AMINO-2-[3-(4-BENZYLOXY-PHENYL)-UREIDO]-HEPTANOIC ACID (4-CYCLOHEXYL-PHENYL)-AMIDE] | 102% | 
Cc1ccc(NC(=O)[C@H](CCCCN(C)C)NC(=O)OCC2c3ccccc3-c3ccccc32)cc1 [Compound 124, (S)-(5-DIMETHYLAMINO-1-P-TOLYLCARBAMOYL-PENTYL)-CARBAMIC ACID 9H-FLUOREN-9-YLMETHYL ESTER] |  | 79%
Cc1ccc(NC(=O)[C@H](CCCCN)NC(=O)NC2c3ccccc3-c3ccccc32)cc1 [Compound 126, (S)-6-AMINO-2-[3-(9H-FLUOREN-9-YL)-UREIDO]-HEXANOIC ACID P-TOLYLAMIDE] |  | 98%
Cc1ccc(NC(=O)[C@H](CCCCN)NC(=O)Nc2cccc(-c3ccccc3)c2)cc1 [Compound 127, (S)-6-AMINO-2-(3-BIPHENYL-3-YL-UREIDO)-HEXANOIC ACID P-TOLYLAMIDE] |  | 45%
NCCCC[C@@H](NC(=O)Nc1ccc(-c2ccccc2)cc1)C(=O)Nc1ccc(C2CCCCC2)cc1 [Compound 142, (R)-6-AMINO-2-(3-BIPHENYL-4-YL-UREIDO)-HEXANOIC ACID (4-CYCLOHEXYL-PHENYL)-AMIDE] | 103% | 
Cc1ccc(NC(=O)[C@H](Cc2ccc(CN)cc2)NC(=O)Nc2ccc(-c3ccccc3)cc2)cc1 [Compound 145, (S)-3-(4-AMINOMETHYL-PHENYL)-2-(3-BIPHENYL-4-YL-UREIDO)-N-P-TOLYL-PROPIONAMIDE] |  | 102%
Cc1ccc(NC(=O)[C@H](Cc2ccc(CN)cc2)NC(=O)Nc2ccc(OCc3ccccc3)cc2)cc1 [Compound 146, (S)-3-(4-AMINOMETHYL-PHENYL)-2-[3-(4-BENZYLOXY-PHENYL)-UREIDO]-N-P-TOLYL-PROPIONAMIDE] |  | 102%
O=C(CC1CNCCN1C(=O)Nc1ccc(OCc2ccccc2)cc1)Nc1ccc(C2CCCCC2)cc1 (stereo not drawn) [Compound 163, 2-[(4-CYCLOHEXYL-PHENYLCARBAMOYL)-METHYL]-PIPERAZINE-1-CARBOXYLIC ACID (4-BENZYLOXY-PHENYL)-AMIDE] | 102% | 
NCCCC[C@@H](NC(=O)Nc1ccc(OCc2ccccc2)cc1)C(=O)Nc1ccc(C2CCCCC2)cc1 [Compound 166, (R)-6-AMINO-2-[3-(4-BENZYLOXY-PHENYL)-UREIDO]-HEXANOIC ACID (4-CYCLOHEXYL-PHENYL)-AMIDE] | 102% | 
Cc1ccc(NC(=O)[C@H](CCCCNC(=O)CN)NC(=O)OCC2c3ccccc3-c3ccccc32)cc1 [Compound 176, (S)-[5-(2-AMINO-ACETYLAMINO)-1-P-TOLYLCARBAMOYL-PENTYL]-CARBAMIC ACID 9H-FLUOREN-9-YLMETHYL ESTER] |  | 68%
CC(=O)NCCCC[C@H](NC(=O)OCC1c2ccccc2-c2ccccc21)C(=O)Nc1ccc(C)cc1 [Compound 181, (S)-(5-ACETYLAMINO-1-P-TOLYLCARBAMOYL-PENTYL)-CARBAMIC ACID 9H-FLUOREN-9-YLMETHYL ESTER] |  | 18.5%
Cc1ccc(NC(=O)CC2CN(C(=O)[C@H](C)N)CCN2C(=O)OCC2c3ccccc3-c3ccccc32)cc1 (stereo partly drawn) [Compound 184, 4-((S)-2-AMINO-PROPIONYL)-2-(P-TOLYLCARBAMOYL-METHYL)-PIPERAZINE-1-CARBOXYLIC ACID 9H-FLUOREN-9-YLMETHYL ESTER] |  | 38%
CCNCC(=O)N1CCN(C(=O)OCC2c3ccccc3-c3ccccc32)C(CC(=O)Nc2ccc(C)cc2)C1 (stereo not drawn) [Compound 187, 4-(2-ETHYLAMINO-ACETYL)-2-(P-TOLYLCARBAMOYL-METHYL)-PIPERAZINE-1-CARBOXYLIC ACID 9H-FLUOREN-9-YLMETHYL ESTER] |  | 33.5%
CNCC(=O)NCCC[C@H](NC(=O)OCC1c2ccccc2-c2ccccc21)C(=O)Nc1ccc(C)cc1 [Compound 223, (S)-[4-(2-METHYLAMINO-ACETYLAMINO)-1-P-TOLYLCARBAMOYL-BUTYL]-CARBAMIC ACID 9H-FLUOREN-9-YLMETHYL ESTER] |  | 22%
Cc1ccc(NC(=O)[C@H](CCCCN)NC(=O)Nc2ccc(NCc3ccc(F)cc3)cc2)cc1 [Compound 225, (S)-6-AMINO-2-{3-[4-(4-FLUORO-BENZYLAMINO)-PHENYL]-UREIDO}-HEXANOIC ACID P-TOLYLAMIDE] |  | 62%
Cc1cc2cc(NC(=O)[C@H](CCNC(=O)CN)NC(=O)Nc3ccc4c(c3)Cc3ccccc3-4)ccc2[nH]1 [Compound 240, (S)-4-(2-AMINO-ACETYLAMINO)-2-[3-(9H-FLUOREN-2-YL)-UREIDO]-N-(2-METHYL-1H-INDOL-5-YL)-BUTYRAMIDE] | 63% | 
